The subject of this series is CCRIS mutagenicity, Ames/micronucleus/aberration tests. Description: CCRIS mutagenicity studies.
Setting [1] is: Test System: AMES SALMONELLA TYPHIMURIUM, Strain/Indicator: TA100, Metabolic Activation: NONE, Method: PREINCUBATION

From PubChem BioAssay AID1259407 (Chemical Carcinogenesis Research Information System (CCRIS), 2018) come the findings set out here.

Active and inactive are the calls of the source. The rule behind the calls is not given here.

`Nc1ccc(N=Nc2ccc(-c3ccc(N=Nc4c(S(=O)(=O)O)cc5c(c4N)C(=O)/C(=N/Nc4ccccc4)C(S(=O)(=O)O)=C5)cc3)cc2)c(N)c1`: the mutagenic call is “active; positive” (Test System: AMES SALMONELLA TYPHIMURIUM, Strain/Indicator: SV50, Metabolic Activation: HAMSTER, LIVER, S-9, Method: PREINCUBATION (PRIVAL METHOD)); “active; positive” (Test System: AMES SALMONELLA TYPHIMURIUM, Strain/Indicator: SV50, Metabolic Activation: RAT, LIVER, S-9, AROCLOR 1254, Method: PREINCUBATION (PRIVAL METHOD)); “active; positive” (Test System: AMES SALMONELLA TYPHIMURIUM, Strain/Indicator: TA98, Metabolic Activation: HAMSTER, LIVER, S-9, Method: PREINCUBATION (PRIVAL METHOD)); “inactive; negative” (Test System: AMES SALMONELLA TYPHIMURIUM, Strain/Indicator: TA98, Metabolic Activation: NONE, Method: STANDARD PLATE); “active; positive” (Test System: AMES SALMONELLA TYPHIMURIUM, Strain/Indicator: TA98, Metabolic Activation: RAT, LIVER, S-9, AROCLOR 1254, Method: PREINCUBATION (PRIVAL METHOD)); “inactive; negative” (Test System: AMES SALMONELLA TYPHIMURIUM, Strain/Indicator: TA98, Metabolic Activation: RAT, LIVER, S-9, PHENOBARBITAL, Method: STANDARD PLATE). For the same compound, the mutagenic call was “inactive; negative” (Test System: AMES SALMONELLA TYPHIMURIUM, Strain/Indicator: TA100, Metabolic Activation: NONE, Method: STANDARD PLATE); “inactive; negative” (Test System: AMES SALMONELLA TYPHIMURIUM, Strain/Indicator: TA100, Metabolic Activation: RAT, LIVER, S-9, PHENOBARBITAL, Method: STANDARD PLATE); “inactive; negative” (Test System: AMES SALMONELLA TYPHIMURIUM, Strain/Indicator: TA1538, Metabolic Activation: NONE, Method: STANDARD PLATE); “active; positive” (Test System: AMES SALMONELLA TYPHIMURIUM, Strain/Indicator: TA1538, Metabolic Activation: RAT, LIVER, S-9, AROCLOR 1254, Method: STANDARD PLATE); “active; positive, test conducted under both aerobic and anaerobic conditions” (Test System: Ames Salmonella typhimurium, Strain/Indicator: TA98, Metabolic Activation: Rat, Liver, S-9, Sodium phenobarbitone, Method: Preincubation); “active; positive, test conducted under both aerobic and anaerobic conditions” (Test System: Ames Salmonella typhimurium, Strain/Indicator: TA1538, Metabolic Activation: Rat, Liver, S-9, Sodium phenobarbitone, Method: Preincubation).

Turning to `O=c1c2c(O)cc(O)cc2oc2c(O)ccc(O[C@@H]3O[C@H](CO)[C@@H](O)[C@H](O)[C@H]3O)c12`, the mutagenic call (Test System: AMES SALMONELLA TYPHIMURIUM, Strain/Indicator: TA97, Metabolic Activation: RAT, LIVER, S-9, PHENOBARBITAL AND 5,6-BENZOFLAVONE, BETA-GLUCOSIDASE, Method: PREINCUBATION) was “active; positive”; the mutagenic call (Test System: AMES SALMONELLA TYPHIMURIUM, Strain/Indicator: TA98, Metabolic Activation: RAT, LIVER, S-9, PHENOBARBITAL AND 5,6-BENZOFLAVONE, BETA-GLUCOSIDASE, Method: PREINCUBATION) was “inactive; negative”; the mutagenic call (Test System: AMES SALMONELLA TYPHIMURIUM, Strain/Indicator: TA100, Metabolic Activation: RAT, LIVER, S-9, PHENOBARBITAL AND 5,6-BENZOFLAVONE, BETA-GLUCOSIDASE, Method: PREINCUBATION) was “active; positive”; the mutagenic call (Test System: AMES SALMONELLA TYPHIMURIUM, Strain/Indicator: TA2637, Metabolic Activation: RAT, LIVER, S-9, PHENOBARBITAL AND 5,6-BENZOFLAVONE, BETA-GLUCOSIDASE, Method: PREINCUBATION) is “active; positive”.

As to `CCCCCN`, the mutagenic call reads like this: (Test System: AMES SALMONELLA TYPHIMURIUM, Strain/Indicator: TA98, Metabolic Activation: HAMSTER, LIVER, S-9, AROCLOR 1254 (10%), Method: PREINCUBATION) “inactive; negative”; (Test System: AMES SALMONELLA TYPHIMURIUM, Strain/Indicator: TA98, Metabolic Activation: NONE, Method: PREINCUBATION) “inactive; negative”; (Test System: AMES SALMONELLA TYPHIMURIUM, Strain/Indicator: TA98, Metabolic Activation: RAT, LIVER, S-9, AROCLOR 1254 (10%), Method: PREINCUBATION) “inactive; negative”; (Test System: AMES SALMONELLA TYPHIMURIUM, Strain/Indicator: TA100, Metabolic Activation: HAMSTER, LIVER, S-9, AROCLOR 1254 (10%), Method: PREINCUBATION) “inactive; negative”; under setting [1], “inactive; negative”; (Test System: AMES SALMONELLA TYPHIMURIUM, Strain/Indicator: TA100, Metabolic Activation: RAT, LIVER, S-9, AROCLOR 1254 (10%), Method: PREINCUBATION) “inactive; negative”. Further, the mutagenic call reads like this: (Test System: AMES SALMONELLA TYPHIMURIUM, Strain/Indicator: TA1535, Metabolic Activation: HAMSTER, LIVER, S-9, AROCLOR 1254 (10%), Method: PREINCUBATION) “inactive; negative”; (Test System: AMES SALMONELLA TYPHIMURIUM, Strain/Indicator: TA1535, Metabolic Activation: NONE, Method: PREINCUBATION) “inactive; negative”; (Test System: AMES SALMONELLA TYPHIMURIUM, Strain/Indicator: TA1535, Metabolic Activation: RAT, LIVER, S-9, AROCLOR 1254 (10%), Method: PREINCUBATION) “inactive; negative”; (Test System: AMES SALMONELLA TYPHIMURIUM, Strain/Indicator: TA1537, Metabolic Activation: HAMSTER, LIVER, S-9, AROCLOR 1254 (10%), Method: PREINCUBATION) “inactive; negative”; (Test System: AMES SALMONELLA TYPHIMURIUM, Strain/Indicator: TA1537, Metabolic Activation: NONE, Method: PREINCUBATION) “inactive; negative”; (Test System: AMES SALMONELLA TYPHIMURIUM, Strain/Indicator: TA1537, Metabolic Activation: RAT, LIVER, S-9, AROCLOR 1254 (10%), Method: PREINCUBATION) “inactive; negative”.

With `CCC(=C(CC)c1ccc(O)cc1)c1ccc(O)cc1`, under “End Point: IN VITRO MICRONUCLEUS, Test System: CHL/IU CELLS, Metabolic Activation: NONE”, the mutagenic call is “active; positive”.

For the compound `O=c1ccn([C@H]2C[C@H](O)[C@@H](CO)O2)c(=O)[nH]1`, the mutagenic call is “inactive; negative” (Test System: AMES SALMONELLA TYPHIMURIUM, Strain/Indicator: TA97, Metabolic Activation: NONE, Method: PREINCUBATION); “inactive; negative” (Test System: AMES SALMONELLA TYPHIMURIUM, Strain/Indicator: TA97, Metabolic Activation: RAT, LIVER, S-9, AROCLOR 1254, Method: PREINCUBATION); “inactive; negative” under setting [1]; “inactive; negative” (Test System: AMES SALMONELLA TYPHIMURIUM, Strain/Indicator: TA100, Metabolic Activation: RAT, LIVER, S-9, AROCLOR 1254, Method: PREINCUBATION); “inactive; negative” (Test System: CHINESE HAMSTER V-79, Strain/Indicator: V-79/8-AZAGUANINE, Metabolic Activation: NONE).
